Experimental data: patent publication US5770563A, “Heparin- and sulfatide binding peptides from the type I repeats of human thrombospondin and conjugates thereof” (The United States of America as represented by the …, priority 1995, dated 1998)
Where two headings read alike, the source gives them in different places. Square brackets hold non-standard residues; d marks the D form. Peptide text beside a SMILES is read from it. Mpa = O=C(O)CCS

What was measured:
[1] = target: thrombospondin binding to sulfatide; experiment: Inhibition of 125I-thrombospondin binding to sulfatide; parameters: species or system human; details: Table 1, free peptide
Procedure: (§1) The peptides were tested as inhibitors of laminin, thrombospondin or apolipoprotein E binding to a heparin-bovine serum albumen conjugate or to a sulfatide in a solid phase assay essentially following the procedure described in Zabrenetzky et al., Cancer Res., Vol. 50, pages 5937-5942 (1990). Sulfatide (0.2 μg/well for thrombospondin binding, 0.6 μg/well for laminin binding) was immobilized in a mixture of 50 ng of phosphatidyl choline, and 30 ng of cholesterol on polyvinyl chloride microtiter plates. Heparin-BSA (0.2 μg/well) was absorbed onto polyvinyl chloride microtiter plate wells by incubation of 50 μl of Dulbecco's PBS for 2 h at 37°. The wells were emptied and filled with 50 mM tris, pH 7.8 containing 150 mM NaCl, 1 mM CaCl2, 0.025% NaN3, and 1% BSA. After 30 minutes, the wells were emptied and 30 μl of various concentrations of potential inhibitory peptides diluted in the same buffer or buffer alone and 30 μl of ^125 I-labeled laminin, thrombospondin or apolipoprotein E (0.2 μg/ml) were added to each well. After 3 hours at 4°, the wells were washed 6 times with 0.15M NaCl, cut from the plate and the bound radioactivity counted. FIGS. 1A-B and 2A-B show the level of thrombospondin binding to sulfatide and heparin-BSA, respectively, in the presence of increasing concetrations of the peptides listed. FIGS. 3 and 4A-B show the level of laminin binding to sulfatide and heparin-BSA, respectively, in the presence of increasing concentrations of the listed peptides.

[2] = target: apolipoprotein E binding to heparin; experiment: Inhibition of 125I-apolipoprotein E binding to heparin-BSA; details: Table 2, free peptide; read-out: IC50 Apo E Binding to Heparin
Procedure: as §1

[3] = target: thrombospondin binding to heparin; experiment: Inhibition of 125I-thrombospondin binding to immobilized heparin-BSA; parameters: species or system human
Procedure: as §1
Microtiter plate wells were coated with heparin-BSA. Heparin-BSA (0.2 μg/well) was adsorbed by incubation in 50 μl of Dulbecco's PBS for 2 h at 370. The wells were emptied, filled with tris-BSA, and incubated for 30 to 60 minutes. The buffer was removed, and labelled thrombospondin was added and incubated in the wells for 3 h at 40. The wells were emptied and washed 4 times with saline. The bottoms of the wells were cut from the plate and counted to quantify thrombospondin binding. Inhibition of thrombospondin binding was determined using peptides diluted in 30 μl of 50 mM tris buffer, pH 7.8, containing 110 mM NaCl, 1 mM CaCl2, 0.025% NaN3, and 1% BSA or buffer alone and 30 μl of ^125 I-labeled TSP (0.2 μg/ml).

[4] = target: laminin binding to heparin; experiment: Inhibition of 125I-laminin binding to heparin-BSA; parameters: species or system mouse; details: Table 2, free peptide
Procedure: as §1

A2058 melanoma cells [5] = experiment: 125I-thrombospondin binding to A2058 melanoma cells; assay type: cell-based, human
Procedure: (§2) Melanoma cells (1×10^5 in 0.2 ml) were incubated with 0.2 μg/ml labeled laminin alone or in the presence of 200 micrograms per ml of peptides from SEQ ID NO:1, SEQ ID NO:2, or SEQ ID NO:3, type-I repeats from thrombospondin (FIG. 5A). Melanoma cells were also incubated with labelled laminin or thrombospondin alone or in the presence of 10 μg/ml of peptides from the first (184, SEQ ID NO:1), second (185, SEQ ID NO:2 and 246, SEQ ID NO:19), or third type I repeat of thrombospondin (186, SEQ ID NO:3) or 1 μg/ml heparin (FIG. 5B). The cells were centrifuged through oil to separate the free laminin from the bound laminin followed by quantifying the radioactivity in the cell pellet by a gamma counter. The results are presented in FIGS. 5A and B, as a percent of control binding determined in the absence of peptide and is the mean of triplicate determinations±the standard deviation.
(§3) Melanoma cells (3×10^5 cells in 0.2 ml) were incubated with 0.2 μg/ml of labelled I^125 -thrombospondin alone or in the presence of increasing concentrations of heparin or a peptide having the sequence according to SEQ ID NO:1 or a combination of the two inhibitors. […]
(§4) A2058 melanoma cells were harvested as described above and suspended in Dulbecco's PBS containing 1 mg/ml BSA. […] The supernatant fluid was aspirated, and the bottom of the tube was cut and counted.

[6] = target: laminin binding to sulfatide; experiment: Inhibition of 125I-laminin binding to sulfatide; parameters: species or system mouse; details: Table 2, free peptide
Procedure: as §1

A2058 melanoma cells [7] = experiment: A2058 melanoma cell adhesion to peptides adsorbed on plastic; assay type: cell-based, human
Procedure: Human melanoma cell line A2058 (Todaro et al., Proc. Natl. Acad. Sci USA 77, 5258-5262 (1980)) was maintained by monolayer culture at 37° with 5% carbon dioxide in RPMI 1640 medium containing 10% fetal bovine serum. For attachment assays, cells were removed using trypsin, passaged at 10^4 cells/cm^2 and harvested between days 5 and 7. Attachment and spreading on thrombospondin-coated plastic was determined as previously described (Roberts et al., J. Cell Biol. 104, 131-139 (1987)). Inhibition was determined by adding the inhibitor diluted in 0.4 ml of bicarbonate-free RPMI 1640 medium, containing 1 mg/ml of bovine serum albumin (fatty acid free, Sigma), pH 7.3, to wells of a 24-well dish containing bacteriological polystyrene was coated with the indicated peptides at 200 μg/ml. Melanoma cells were harvested by incubation with phosphate buffered saline containing 2.5 mM EDTA for 20 minutes at 37°. The cells were centrifuged and viability (routinely >99%) was assessed by trypan blue exclusion. The cells were resuspended in medium and allowed to recover in suspension for 1 h. Melanoma cells (2×10^5 ) suspended in 100 μl of medium (approx 10^3 /mm^2) were added to each well and allowed to attach for 60 minutes at 37° C. in a humidified atmosphere.

[8] = target: basic fibroblast growth factor (FGF-2) binding to heparin; experiment: Inhibition of 125I-bFGF binding to heparin-BSA conjugate; details: retro-inverso peptides; read-out: IC50 for Inhibition of Binding
Procedure: Binding of ^125 I-bFGF to heparin was determined using an immobilized heparin-BSA conjugate as previously described (Guo, et al. (1992) Proc. Nat'l Acad. Sci. 89:3040-3044). ^125 I-bFGF, prepared as described by Neufeld, et al, (1985), J. Biol. Chem. 260:13860-13868, was added described above, and incubated for 2 hours at 25° C. Bound radioactivity was determined after washing and cutting the wells from the plate. FIGS. 40A, B and C show the inhibition of ^125 I-bFGF binding to heparin by a number of TSP peptide analogs.

bovine endothelial cells = experiment: Inhibition of bovine endothelial cell proliferation (Table 7); assay type: cell-based; details: free peptide; read-out: IC50 Inhibitory Activity, Free Peptide
Procedure: Similar structure-function and epitope mapping studies were carried out with regard to inhibition of bovine endothelial cell proliferation. […] This may be due either to a lower tendency of the conjugates to stick to the microtiter wells or a greater tendency to disrupt binding of the cells to the substratum in the wells.
Endothelial cell proliferation was measured using the CELL TITER 96™ assay (Promega, Madison, Wis.). 5×10^3 cells were plated into each well of a 96-well culture plate in 0.5 or 5% FCS-containing medium together with the indicated concentrations of growth effectors. After 72 h, 15 μl of dye solution was added to each well, and the plates were incubated for an additional 4 h. Solubilization solution was added, and absorbance at 570 nm was determined after 24 h as described by the manufacturer.

[9] = system: MDA MB435 breast carcinoma cells; experiment: MDA MB435 human breast carcinoma cell proliferation; assay type: cell-based; details: free peptide
Procedure: Human breast carcinoma cells MDA MB435 (American Type Culture Collection) were grown in RPMI 1640 medium containing 10% fetal calf serum. Proliferation was determined as described in FIG. 18 and 44A, B and C.
Human breast carcinoma cells MDA MB435 (American Type Culture Collection) were grown in RPMI 1640 medium containing 10% fetal calf serum. Proliferation was determined in the presence of 0.5% fetal calf serum and bFGF as described in FIG. 19.

A2058 melanoma cells [10] = experiment: 125I-laminin binding to A2058 melanoma cells; assay type: cell-based, human; details: excess heparin
Procedure: as §2, §3, §4

AIDS-KS cells = experiment: AIDS-KS cell chemotaxis, modified Boyden chamber; assay type: cell-based, human; details: added in the lower well
Procedure: Directed migration (chemotaxis) and general migration (chemokinesis) of AIDS-KS cells in culture was measured by the modified Boyden chamber assay using fibronectin coated […] Nucleopore filters as previously described. In brief, the AIDS-KS cells, were trypsinized then resuspended in RPMI 1640 containing […] (GIBCO-BRL) and 20% activated lymphocyte conditioned medium. The trypsinized cells were allowed to recover in suspension for 2 hours, then the cells were recovered by centrifugation and resuspended in RPMI 1640 containing 0.1% BS at 5×10^5 cells/ml prior to adding 100 μl to the upper wells in the chemotaxis chamber. Migration to BSA (0.1%) and OSM was performed in the presence of the indicated concentrations of TSP, and TSP peptide-FICOLL conjugates. After 3 hours incubation at 37° C. filters were stained with Diff Quick (Merz-Dade, Dudingen, Switzerland), and the migrated cells in ten high-power fields were counted. The values are triplicate determinations and the bars indicate standard deviations, n=3.

[11] = Table 1, free peptide, read-out: IC50 Heparin Binding, inhibition of 125I-thrombospondin binding
[12] = retro-inverso peptides, free, read-out: IC50 Inhibitory Activity, Free Peptide

C[C@@H](O)[C@H](NC(=O)[C@H](CO)NC(=O)[C@H](CS)NC(=O)[C@H](CO)NC(=O)[C@@H](NC(=O)[C@H](Cc1c[nH]c2ccccc12)NC(=O)[C@H](CCC(=O)O)NC(=O)[C@H](CO)NC(=O)[C@H](Cc1c[nH]c2ccccc12)NC(=O)[C@@H]1CCCN1C(=O)[C@@H](N)CO)[C@@H](C)O)C(=O)N[C@@H](CO)C(=O)O [Peptide 184, SPWSEWTSCSTS] (H-SPWSEWTSCSTS-OH)
IC50 [1]: 14 µM | IC50 [2]: 4.2 µM | IC50 [3, 11]: 47 µM | IC50 [4]: 36 µM | inhibition of thrombospondin binding to A2058 melanoma cells, in words (A2058 melanoma cells [5]; dose dependent): inhibited | IC50 [6]: 42 µM

CC(C)[C@H](NC(=O)[C@H](CO)NC(=O)[C@@H](N)CS)C(=O)N[C@H](C(=O)N[C@@H](CS)C(=O)NCC(=O)O)[C@@H](C)O [Peptide 187, CSVTCG] (H-CSVTCG-OH)
promotion of melanoma cell adhesion, in words (A2058 melanoma cells [7]; peptide adsorbed on plastic): promoted significant cell adhesion above background | IC50 [1]: 14 µM | IC50 [2]: 84 µM | IC50 [3, 11]: 6 µM | inhibition of thrombospondin binding to heparin, in words ([3]; free peptide): active | IC50 [4]: 3 µM | IC50 [6]: 3.9 µM

C[C@@H](NC(=O)CCS)C(=O)N[C@H](C)C(=O)N[C@H](Cc1c[nH]c2ccccc12)C(=O)N[C@H](Cc1c[nH]cn1)C(=O)N[C@H](CO)C(=O)N[C@H](Cc1c[nH]c2ccccc12)C(=O)NCC(=O)NCC(=O)N[C@H](C)C(=O)N[C@H](CCC(N)=O)C(=O)N[C@H](CCCCN)C(=O)N[C@H](C)C(=O)N[C@H](CCCNC(=N)N)C(=O)N[C@H](CCCCN)C(N)=O [Peptide 483, ri-amKRAKQAGGWSHWAAtp] ([Mpa][dA][dA][dW][dH][dS][dW]GG[dA][dQ][dK][dA][dR][dK]-NH2)
IC50 [8]: > 20 µM | IC50 (bovine endothelial cells): 4 µM | inhibition of MDA MB435 proliferation, in words [9]: active | IC50 [3, 12]: 0.13 µM

CC(=O)N[C@H](CS)C(=O)N[C@H](CO)C(=O)N[C@H](CO)C(=O)N[C@H](C)C(=O)N1CCC[C@@H]1C(=O)N[C@H](CO)C(=O)N[C@H](C)C(=O)N[C@H](Cc1c[nH]cn1)C(=O)N[C@H](CO)C(=O)N[C@H](C)C(=O)NCC(=O)NCC(=O)N[C@H](CC(=O)O)C(=O)N[C@H](CCC(N)=O)C(=O)N[C@H](CCCCN)C(=O)N[C@H](C)C(=O)N[C@H](CCCNC(=N)N)C(=O)N[C@H](CCCCN)C(N)=O [Peptide 513, ri-amKRAKQDGGASHASPASSCac] (Ac-[dC][dS][dS][dA][dP][dS][dA][dH][dS][dA]GG[dD][dQ][dK][dA][dR][dK]-NH2)
IC50 [8]: 18 µM | IC50 (bovine endothelial cells): 18 µM | IC50 [3, 12]: 6.2 µM

apolipoprotein E: recombinant apolipoprotein E, heparin-binding protein
inhibition of A2058 adhesion to the peptides (A2058 melanoma cells [7]; disks coated with 200 μg/ml peptide 185): inhibited adhesion

heparin [reference compound]
laminin binding resistant to inhibition (A2058 melanoma cells [10]): approximately 50% | inhibition of thrombospondin binding to A2058 melanoma cells by heparin (A2058 melanoma cells [5]; heparin): approximately 90%

B1: oncostatin M: growth factor, chemoattractant for AIDS-KS cells (protein, UniProt P13725 26-221, looked up)
Oncostatin-M: AAIGSCSKEYRVLLGQLQKQTDLMQDTSRLLDPYIRIQGLDVPKLREHCRERPGAFPSEETLRGLGRRGFLQTLNATLGCVLHRLADLEQRLPKAQDLERSGLNIEDLEKLQMARPNILGLRNNIYCMAQLLDNSDTAEPTKAGRGASQPPTPTPASDAFQRKLEGCRFLHGYHRFMHSVGRVFSKWGESPNRSRR
stimulation of AIDS-KS cell motility (AIDS-KS cells): simulated motility
